# Assay results as given in patent publication US11576382B2, “Naphthalene isoxazoline compounds for controlling invertebrate pests” (FMC Corporation, priority 2018, dated 2023).
# Legend:
# Assay type in all cases: in vivo
# [1] = system: cotton melon aphid (Aphis gossypii (Glover)); experiment: Test F: control of cotton melon aphid through contact and/or systemic means; settings: 144 h
# Description: (§1) Formulation and Spray Methodology for Tests A-H
# (§2) Test compounds were formulated using a solution containing 10% acetone, 90% water and 300 ppm Activator 90® non-ionic surfactant (Loveland Products, Loveland, Colo., USA). The formulated compounds were applied in 1 mL of liquid through an atomizer nozzle positioned 1.27 cm (0.5 inches) above the top of each test unit. Test compounds were sprayed at the rates indicated, and each test was replicated three times.
# For evaluating control of cotton melon aphid (Aphis gossypii (Glover)) through contact and/or systemic means, the test unit consisted of a small open container with a 5-day-old okra plant inside. This was pre-infested with 30-40 insects on a piece of leaf according to the cut-leaf method, and the soil of the test unit was covered with a layer of sand.
# Test compounds were formulated and sprayed at 250, 50 and 10 ppm. After spraying, the test units were maintained in a growth chamber for 6 days at 19° C. and 70% relative humidity. Each test unit was then visually assessed for insect mortality.
# [2] = system: green peach aphid (Myzus persicae (Sulzer)); experiment: Test E: control of green peach aphid through contact and/or systemic means; settings: in Raphanus sativus, 144 h
# Description: as §1, §2
# For evaluating control of green peach aphid (Myzus persicae (Sulzer)) through contact and/or systemic means, the test unit consisted of a small open container with a 12-15-day-old radish plant inside. This was pre-infested by placing on a leaf of the test plant 30-40 aphids on a piece of leaf excised from a culture plant (cut-leaf method). The aphids moved onto the test plant as the leaf piece desiccated. After pre-infestation, the soil of the test unit was covered with a layer of sand.
# Test compounds were formulated and sprayed at 250, 50 and 10 ppm. After spraying of the formulated test compound, each test unit was allowed to dry for 1 hour and then a black, screened cap was placed on top. The test units were held for 6 days in a growth chamber at 19-21° C. and 50-70% relative humidity. Each test unit was then visually assessed for insect mortality.
# [3] = system: potato leafhopper (Empoasca fabae (Harris)); experiment: Test D: control of potato leafhopper through contact and/or systemic means; settings: 144 h
# Description: as §1, §2
# For evaluating control of potato leafhopper (Empoasca fabae (Harris)) through contact and/or systemic means, the test unit consisted of a small open container with a 5-6-day-old Soleil bean plant (primary leaves emerged) inside. White sand was added to the top of the soil, and one of the primary leaves was excised prior to application of the test compound.
# Test compounds were formulated and sprayed at 250, 50, 10 and 2 ppm. After spraying of the formulated test compound, the test units were allowed to dry for 1 hour before they were post-infested with 5 potato leafhoppers (18-to-21-day-old adults). A black, screened cap was placed on the top of the test unit, and the test units were held for 6 days in a growth chamber at 20° C. and 70% relative humidity. Each test unit was then visually assessed for insect mortality.
# [4] = system: sweetpotato whitefly (Bemisia tabaci (Gennadius)); experiment: Test G: control of sweetpotato whitefly through contact and/or systemic means; settings: in Gossypium hirsutum, 312 h
# Description: as §1, §2
# For evaluating control of the sweetpotato whitefly (Bemisia tabaci (Gennadius)) through contact and/or systemic means, the test unit consisted of a small open container with a 12-14-day-old cotton plant inside. Prior to the spray application, both cotyledons were removed from the plant, leaving one true leaf for the assay. Adult whiteflies were allowed to lay eggs on the plant and then were removed from the test unit. Cotton plants infested with at least 15 eggs were submitted to the test for spraying.
# Test compounds were formulated and sprayed at 250, 50, and 10 ppm. After spraying, the test units were allowed to dry for 1 hour. The cylinders were then removed, and the units were taken to a growth chamber and held for 13 days at 28° C. and 50-70% relative humidity. Each test unit was then visually assessed for insect mortality.
Compound,mortality at 50 ppm [1] [%],mortality at 250 ppm [1] [%],mortality at 50 ppm [2] [%],mortality at 250 ppm [2] [%],mortality at 250 ppm [3] [%],mortality at 2 ppm [4] [%],mortality at 10 ppm [4] [%],mortality at 50 ppm [4] [%],mortality at 10 ppm [1] [%],mortality at 2 ppm [3] [%],mortality at 10 ppm [3] [%],mortality at 50 ppm [3] [%]
"COC(=O)CNC(=O)c1ccc(C2=NOC(c3cc(Cl)c(F)c(Cl)c3)(C(F)(F)F)C2)c2ccccc12 (stereo not drawn) [Compound 35, N-[[4-[5-(3,5-dichloro-4-fluorophenyl)-4,5-dihydro-5-(trifluoromethyl)-3-isoxazolyl]-1-naphthalenyl]carbonyl]glycine methyl ester]",≥ 80,≥ 80,≥ 80,≥ 80,≥ 80,,,,,,,
"CON=CNC(=O)c1ccc(C2=NOC(c3cc(Cl)c(F)c(Cl)c3)(C(F)(F)F)C2)c2ccccc12 (stereo not drawn) [Compound 33, 4-[5-(3,5-dichloro-4-fluorophenyl)-4,5-dihydro-5-(trifluoromethyl)-3-isoxazolyl]-N-[(methoxyimino)methyl]-1-naphthalenecarboxamide]",≥ 80,,≥ 80,,,≥ 70,≥ 70,≥ 70,≥ 80,≥ 80,≥ 80,≥ 80
"O=C(NCc1ccccn1)c1ccc(C2=NOC(c3cc(Cl)c(F)c(Cl)c3)(C(F)(F)F)C2)c2ccccc12 (stereo not drawn) [Compound 15, 4-[5-(3,5-dichloro-4-fluorophenyl)-4,5-dihydro-5-(trifluoromethyl)-3-isoxazolyl]-N-(2-pyridinylmethyl)-1-naphthalenecarboxamide]",,,,,,,,≥ 70,,≥ 80,≥ 80,≥ 80
"C[C@@H](NC(=O)c1ccc(C2=NOC(c3cc(Cl)c(F)c(Cl)c3)(C(F)(F)F)C2)c2ccccc12)C(N)=O (stereo partly drawn) [Compound 1, N-[(1R)-2-amino-1-methyl-2-oxoethyl]-4-[5-(3,5-dichloro-4-fluorophenyl)-4,5-dihydro-5-(trifluoromethyl)-3-isoxazolyl]-1-naphthalenecarboxamide]",,≥ 80,,,≥ 80,,,,,,,≥ 80
